These results are taken from patent US7414069B2, “Antituberculosis compounds, Hirsutellones A, B, and C” (National Center for Genetic Engineering & Biotechnology, …, priority 2004, dated 2008).

The term IC50 denotes the concentration that gives 50% inhibition. Low readings indicate inhibition by little substance, high ones a need for much substance. Broadly, the MIC is the smallest concentration in the dilution series that meets the test's criterion for growth inhibition. A high value points to a less susceptible organism. As a reminder, the melting point is the temperature of the solid-liquid transition.

Series [1] in a line: Cytotoxicity against Vero cells (sulforhodamine B staining). The following applies: African green monkey, Vero cells (ATCC CCL-81), 37° C. It is filed as cell-based. The method, then: (§1) Hirsutellones A, B and C were tested for cytotoxicity by incubating with Vero cells (African green monkey kidney cell line from American Type Culture Collection USA; ATCC # CCL-81). Each compound was dissolved in dimethyl sulfoxide and then diluted in the culture medium of the Vero cells (Eagle's Minimum Essential with 10% heat-inactivated fetal bovine serum and antibiotics). The Vero cells and the compound were incubated together in a 96-well microplate at a cell concentration of 1.9×10^4 cells/190 μl/well, in a CO2 incubator at 37° C. for 3 days.
(§2) The numbers of the cells in the wells were then determined by a staining method (Skehan, P., et al., J. Natl Cancer Inst., 82:1107-1112 (1990)). The cells were initially fixed by 50% cold trichloroacetic acid (TCA) at 4° C. for 30 minutes. The cells were then washed with water 4 times. After drying, the cells were stained with 0.05% sulforhodamine B in 1% acetic acid for 30 minutes, washed with ^1% acetic acid 4 times and dried at room temperature. Finally, 10 mM Tris-base pH 10 was added. The absorbance at 510 nm of test wells was measured by an ELISA microplate reader. The absorbance was proportionate to the number of the viable cells in the wells. The toxicity level of the compound was recorded as the concentration that rendered the number of viable cells to be less than half of the negative control wells, which contained the cells with DMSO but not the compound. Ellipticine was used as a positive control. The toxicity level of each compound against Vero cells was expressed as IC50.

Series [2] in a line: Cytotoxicity against BC cells (sulforhodamine B staining). It is filed as cell-based. The following applies: human, BC cells (breast cancer), starting concentration 20 μg/ml. The protocol: as §1, §2
(§3) Hirsutellones were also tested for cytotoxicity against multiple human cancer cell lines, to study the effects on human cells in vitro. The cancer cell lines included KB cells (oral epidermoid carcinoma; ATCC # CCL-17), BC cells (breast cancer) and NCI-H187 cells (lung cancer; ATCC # CRL-5804) The same protocol as that for the cytotoxicity assay against Vero cells was used, except for the starting compound concentration which was 20 μg/ml.
On the technique in general: The SRB assay estimates cell density from bound dye.

Series [3] is described as follows: Cytotoxicity against KB cells (sulforhodamine B staining). It is filed as cell-based. The following applies: human, KB cells (oral epidermoid carcinoma, ATCC CCL-17), starting concentration 20 μg/ml. The method, then:
as §1, §2, §3

A short description of series [4]: Cytotoxicity against NCI-H187 cells (sulforhodamine B staining). In kind it is cell-based. The following applies: human, NCI-H187 cells (lung cancer, ATCC CRL-5804), starting concentration 20 μg/ml. The protocol: as §1, §2, §3
The subject of series [5] is Mycobacterium tuberculosis H37Ra strain (ATCC 25166). The experiment in a line: Microplate Alamar Blue Assay (MABA), antituberculous activity. The following applies: M. tuberculosis H37Ra, two-fold serial dilution from 50 μg/ml. It is filed as cell-based. The protocol:
Preparation of Mycobacteria Mycobacterium tuberculosis H37Ra strain (ATCC 25166) was grown in 100 ml of Middlebrook 7H9 broth supplemented with 0.2% glycerol, 1.0 g/l of casitone, 10% OADC, and 0.05% Tween 80. The complete medium was referred to as 7H9GC-Tween. The bacteria were incubated in 500-ml flasks on a rotary shaker at 200 rpm and 37° C. until the optical density at 550 nm reached 0.4-0.5. The bacteria were washed twice with phosphate-buffered saline and then suspended in 20 ml of phosphate-buffered saline. The suspension was passed through an 8-μm-pore-size filter to eliminate clumps. The number of bacteria in the filtrates were counted by plating the bacteria in Middlebrook 7H10 agar. The filtrates were stored at −80° C.
Microplate Alamar Blue Assays (MABA) Anti-tuberculous testing was performed in a 96-well microplate as previously described (Collins, L. and Franzblau, S. G., Antimicrob. Agents Chemother., 41:1004-1009 (1997)). Outer perimeter wells were filled with sterile water to prevent dehydration of the test wells. Crude extracts were initially diluted with dimethyl sulfoxide, and then were diluted to a concentration of 400 μg/ml in Middlebrook 7H9 medium containing 0.2% V/V glycerol and 1.0 g/l casitone (7H9GC). The wells in rows B to G in columns 2, 4, 5, 6, 8, 9, 10 of the microplate were filled with 100 μl of 7H9GC. The wells in column 11 were inoculated with 200 μl of the medium to serve as media controls (M). Bacteria (only) controls (B) were set-up in column 10. One hundred microliters of each crude extract solution (400 μg/ml) were added to three wells in one row in columns 2 (or 6), 3 (or 7) and 4 (or 8). One hundred microliters were transferred from column 4 (or 8) to column 5 (or 9), the contents of the wells in column 5 (or 9) were mixed well and then 100 μl of mixed medium were discarded. The wells in columns 2 and 6 served as test sample controls.
Frozen bacterial inocula were diluted 1:200 in 7H9GC medium. One hundred microliters of the bacteria were added to the wells in rows B to G in columns 3 (or 7), 4 (or 8), 5 (or 9) and 10, resulting in final bacterial titers of approximately 5×10^4 CFU/ml. The wells in column 10 served as bacteria (only) controls (B). Final concentrations of extracts were 200, 100 and 50 μg/ml in columns 3 (or 7), 4 (or 8) and 5 (or 9), respectively.
The plates were sealed with Parafilm and were incubated at 37° C. for 5 days. At day 6 of incubation, 20 μl of Alamar Blue reagent and 12.5 μl of 20% Tween 80 were added to well B10 (B) and B11 (M). The plates were re-incubated at 37° C. for 24 h. […] If the B wells became pink by 24 h, reagent was added to the entire plate. If the well remained blue, the additional M and B wells were tested daily until a color change occurred at which time reagents were added to all remaining wells. The microplates were resealed with Parafilm and were then incubated at 37° C. The results were recorded 24 h after adding reagent.
Blue color in the well was interpreted as no growth, reflecting the activity of the test compound in the well. A pink color was scored as growth and reflected the lack of activity of the test compound. A few wells appeared violet after 24 h of incubation, but they invariably changed to pink after extra day of incubation and thus were scored as growth (while the adjacent blue wells remained blue). […]
In general terms: Resazurin is reduced to fluorescent resorufin, in cell work by metabolically active cells.

Each structure is given as a SMILES string. Values after ≈ are worked out from the molar mass of the structure shown. Some results are limits rather than exact numbers.

`Cc1c2ccncc2c(C)c2c1[nH]c1ccccc12` [Ellipticine, reference compound]: the IC50 at 3 days came to 0.4 µg/mL (≈ 1.62 µM) in series [1], 1.5 µg/mL (≈ 6.09 µM) in series [2], 1.3 µg/mL (≈ 5.28 µM) in series [3] and 0.39 µg/mL (≈ 1.58 µM) in series [4].

As for `C=CC1C=CC2C3CC(C)CCC3C3Oc4ccc(cc4)CC4C(=O)NC(=O)C4C(=O)C1C23` (centres unmarked) [Hirsutellone A], the IC50 at 3 days is over 50 µg/mL in series [1], over 20 µg/mL in series [2], over 20 µg/mL in series [3] and over 20 µg/mL in series [4]. The MIC in series [5] turned out to be 0.78 µg/mL (≈ 1.75 µM).

Regarding `C=CC1C=CC2C3CC(C)CCC3C3Oc4ccc(cc4)CC4(O)CC(C(=O)N4)C(=O)C1C23` (centres unmarked) [Hirsutellone B], the melting point was 261 to 263 °C (dec.). Also, the IC50 at 3 days in series [1] was over 50 µg/mL. In series [2], this compound registered a concentration for half-maximal inhibition (IC50) at 3 days of over 20 µg/mL. This compound also registered an MIC in series [5] of 0.78 µg/mL (≈ 1.74 µM). This compound came in with a half-inhibitory concentration (IC50) at 3 days in series [3] of over 20 µg/mL. This compound also yielded a half-inhibitory concentration (IC50) at 3 days in series [4] of 6 µg/mL (≈ 13.4 µM).

`C=CC1C=CC2C3CC(C)CCC3C3Oc4ccc(cc4)CC4(O)NC(=O)C5(OC45)C(=O)C1C23` (centres unmarked) [Hirsutellone C]: the melting point was 234 to 235 °C (dec.). Further, the IC50 at 3 days in series [1] came to 12 µg/mL (≈ 26 µM). Moreover, half-maximal inhibition in series [2] (IC50 at 3 days) was put at 3.2 µg/mL (≈ 6.93 µM). For the same compound, the MIC in series [5] is 0.78 µg/mL (≈ 1.69 µM). Moreover, in series [3], half-maximal inhibition (IC50 at 3 days) required 4.6 µg/mL (≈ 9.97 µM). In series [4], this compound displayed a 50% inhibitory concentration (IC50) at 3 days of 8.3 µg/mL (≈ 18 µM).

Consider `NNC(=O)c1ccncc1` [isoniazid, reference compound], for which the lowest concentration to inhibit growth in series [5] (MIC) was 0.04 µg/mL (≈ 0.292 µM).

In turn, `NC[C@H]1O[C@H](O[C@H]2[C@H](O)[C@@H](O[C@H]3O[C@H](CO)[C@@H](O)[C@H](N)[C@H]3O)[C@H](N)C[C@@H]2N)[C@H](O)[C@@H](O)[C@@H]1O` [kanamycin, reference compound] showed an MIC in series [5] of 2.5 µg/mL (≈ 5.16 µM).
